Values quoted from earlier work as cited in article PMC11224109, “Synthesis and preclinical evaluation of novel ^18F-vancomycin-based tracers for the detection of bacterial infections using positron emission tomography” (European Journal of Nuclear Medicine and Molecular Imaging, 2024).

Conditions: cited from earlier work

Question: Which “Clinically relevant serum levels” value does the source give for `CN[C@H](CC(C)C)C(=O)N[C@H]1C(=O)N[C@@H](CC(N)=O)C(=O)N[C@H]2C(=O)N[C@H]3C(=O)N[C@H](C(=O)N[C@H](C(=O)O)c4cc(O)cc(O)c4-c4cc3ccc4O)[C@H](O)c3ccc(c(Cl)c3)Oc3cc2cc(c3O[C@@H]2O[C@H](CO)[C@@H](O)[C@H](O)[C@H]2O[C@H]2C[C@](C)(N)[C@H](O)[C@H](C)O2)Oc2ccc(cc2Cl)[C@H]1O` [vancomycin] here?
Answer: about 15 µg/mL
